The structures appear in SMILES notation.

Series [1] concerns the target T1, MAT2A enzyme (Homo sapiens, UniProt P31153).
T1 construct: purchased BPS 71401
Nature of the series: MAT2A enzymatic assay (Biomol Green, OD620). Type of series: biochemical. As for the experimental part: • a) First, a 5× MAT2A assay buffer (250 mM Tris-HCl, pH 8.0; 250 mM KCl; 75 mM MgCl2; 0.025% BSA; 0.05% Brij35; 1.5 mM EDTA) was prepared and partially diluted to 1× for later use. • b) Preparation and addition of MAT2A enzyme (BPS, 71401): The MAT2A enzyme was diluted to 3.674 ng/µL (1.67×, final concentration: 2.20 ng/µL) with the 1× MAT2A assay buffer. Using a BioTek (MultiFlo FX) automated dispenser, the 1.67× MAT2A enzyme solution was added to the compound test wells and negative control wells of a plate at 15 µL/well, and meanwhile, the 1× MAT2A assay buffer was added to the blank control wells at 15 µL/well. • c) Preparation and addition of compounds: The test compound was diluted from a 10 mM stock solution to 100 µM with DMSO, and the positive control drug AGI-24512 was diluted under the same conditions. Using a Tecan compound dispenser (D300e), the dilutions were automatically dispensed into each well according to a preset concentration gradient. The dispensed volume was minimal and considered negligible. The concentration gradient started at 1 µM (1/2 log dilution), and a total of 8 gradient points were set. The plate was centrifuged at 2500 rpm for 30 s and incubated at 25 °C for 30 min. • d) Preparation of ATP: 10 mM ATP (Sigma, A7699) was diluted to 700 µM with the 1× MAT2A assay buffer for later use. • e) Preparation and addition of mixed solution of substrate and ATP: A mixed solution was prepared containing the 5× MAT2A assay buffer (3 µL/well), 750 µM L-methionine (Adamas, 01100469) (2.5 µL/well), 700 µM ATP (2.5 µL/well), and double distilled water (2 µL/well). The total amount of the required mixed solution was prepared according to the number of detection wells. Using a BioTek (MultiFlo FX) automated dispenser, the mixed solution was added at 10 µL/well. The resulting mixture was centrifuged at 2500 rpm for 30 s and allowed to react at 25 °C for 150 min. • f) Addition of Biomol Green detection reagent: Using a BioTek (MultiFlo FX) automated dispenser, Biomol Green (Enzo, BML-AK111) was added at 50 µL/well. The plate was centrifuged at 2500 rpm for 30 s and incubated at 25 °C for 20 min. • g) After the reaction was completed, the OD620 values were measured using a Perkin Elmer (Envision 2105) multimode microplate reader.
The inhibition rate was calculated using the following formula: Inhibition rate % = (ODmax −ODsample)/(ODmax −ODmin) × 100% [formula] where: • ODsample represents the OD620 value of the sample well; • ODmin represents the mean OD620 value of the blank control wells containing no enzyme and no test compound; • ODmax represents the mean OD620 value of the negative control wells containing enzyme but no compound. […]

Series [2] can be described thus: Solid state stability of crystal forms (XRD and HPLC). The format is physicochemical. As for the experimental part: Samples of the crystal forms B, H, and L were placed under the conditions of 25 °C/60% RH and 40 °C/75% RH for 17 days, and then the physicochemical stability of the samples was tested using XRD and HPLC. Table 24: Summary of solid state stability evaluation of crystal forms

Series [3] is described as follows: Suspension stirring competition among anhydrous crystal forms (XRD). The format is physicochemical. To be noted: different solvents and temperatures (room temperature/50 °C). As for the experimental part: The interconversion relationships among the various anhydrous crystal forms were investigated using a suspension stirring competition method in different solvent systems at different temperatures. 1) Equal masses (3-4 mg) of the various anhydrous crystal forms (crystal forms A/B/C/G/H/L/M) were separately weighed and added to HPLC vials. To each vial, 1.0 mL of the corresponding solvent that had been pre-saturated with the crystal form G at the corresponding temperature was added. The resulting suspensions were magnetically stirred (1000 rpm) at room temperature or 50 °C. Samples were taken at 10 min, 3 d, and 7 d, and then centrifuged to collect the solids, which were then subjected to XRD analysis. Table 25: Summary of results of suspension stirring competition test among various anhydrous crystal forms
2) Equal masses (about 5 mg) of the various anhydrous crystal forms (crystal forms B/H/L) were separately weighed and added to HPLC vials. To each vial, 1.0 mL of a solvent that had been pre-saturated with the crystal form G at the corresponding temperature was added. The resulting suspensions were magnetically stirred (1000 rpm) at room temperature or 50 °C. Samples were taken at 10 min, 6 h, 1 d, 4 d, and 7 d, and then centrifuged to collect the solids, which were then subjected to XRD analysis. […]

Series [4] in a line: Heating experiment via DSC followed by XRD. The format is physicochemical. To be noted: Heating temperature 250 °C. From the text:
The heated samples were then collected and subjected to XRD analysis. Table 27: Summary of heating test results for various crystal forms

Series [5] can be described thus: Long-term stability study (XRD and HPLC). The format is physicochemical. Particulars: 40±2 °C/75%±5% RH. How it is done: A sample of the crystal form L was placed under the conditions of 40±2 °C/75%±5% RH, and the physicochemical stability of the sample was tested using XRD and HPLC.
In series [6] the test system is HCT116 MTAP-/- cells. Nature of the series: Cellular assay: cell proliferation inhibition (CellTiter-Glo). Type of series: cell-based. To be noted: Homo sapiens, HCT-116; incubated for 120 h. How it is done:
HCT116 MTAP-/- cells (purchased from Horizon Discovery) (a human colorectal cancer cell strain with deletion of MTAP gene) were cultured in a medium containing RPMI 1640 + 10% FBS (fetal bovine serum). On day 0 of the experiment, the viable cell density of the aforementioned cells in the logarithmic growth phase was adjusted to 5000 cells/mL, and then the cells were seeded into a 96-well plate at 100 µL/well, with blank group wells set up in parallel. The seeded cell plate was placed in an incubator at 37 °C with 5% CO2 and incubated overnight.
On day 1 of the experiment, the cell plate incubated overnight was taken out, and the supernatant was discarded. A serum-free RPMI 1640 medium was then added at 80 µL/well, and the plate was placed in an incubator for starvation culture for 4 h. The test compound was dissolved in DMSO (dimethyl sulfoxide) to prepare a 10 mM compound stock solution. After the starvation was completed, the cell plate was taken out, and a medium containing RPMI 1640 + 20% FBS was further added at 80 µL/well. The cell plate was placed on an automated dispenser D300e (Tecan), with the program for compound addition set as follows: the highest concentration of the compound tested was 30 µM, and 3-fold gradient dilution was performed with DMSO to give a total of 10 concentrations; two replicate wells were set for each concentration; the final concentration of DMSO in each well of the 96-well plate was 0.3% (v/v). The pre-prepared 10 mM test compound stock solution was taken and then added by running the aforementioned drug addition program. After the drug addition was completed, the cell plate was placed in an incubator and incubated for 120 h.
On day 6 of the experiment, the cell plate was taken out, and CellTiter-Glo® (purchased from Promega) was added at 50 µL/well. The […] was measured on Envision (PerkinElmer) according to the operation procedures in the instructions. […]

Series [7] in a line: In vivo pharmacokinetic study in ICR mice. Particulars: mouse, PO @ 10 mg/kg, male ICR mice, plasma; for AUC(0-t): read-out: Area under the curve AUC0-t; for Cmax: read-out: Peak concentration Cmax. As for the experimental part: Male ICR mice (6-10 weeks old, Vital River Laboratory Animal Technology Co., Ltd.) were housed in an SPF animal room at a temperature of 20-25 °C, with a relative humidity of 40%-70%, and under a 12/12-hour light/dark cycle. The animals were given free access to water and food. After at least 5 days of normal feeding, mice with good physical signs as determined by a veterinarian could be included in this experiment. Each mouse was marked with a number on the tail.
The day before the experiment, the mice were fasted overnight, with free access to water. They were fed 4 h after administration. The compound was prepared into a 20 mg/mL stock solution with DMSO. An appropriate volume of the 20 mg/mL stock solution was accurately pipetted into a glass flask, and then an appropriate volume of PEG400 was added. The mixture was mixed well, and then propylene glycol (PG) was added. The ratio of vehicles in the final formulation was DMSO:PEG400:PG (v/v/v) = 5:65:30. This process yielded a test dosing solution of each test compound at a concentration of 1 mg/mL.
The mice were weighed, and then the theoretical administration volume for each mouse was calculated according to the following formula. The actual administered dose for each mouse and the time of blood sample collection should be recorded in detail in the corresponding table. Theoretical administration volume(mL); = ((Dose(mg⋅kg^−1))/(Concentration of test solution(mg⋅mL^−1))) × Animal body weight(kg) [formula]
On the day of the experiment, the test dosing solution of each test compound was intragastrically administered to the mice in each group at a dose of 10 mg/kg. At each time point after administration, about 40 µL of blood was collected from the orbit of each mouse and then placed into an EDTA-K2 anticoagulation tube. The whole blood samples were centrifuged at 1500-1600 g for 10 min. The separated plasma was stored in a freezer at -40 °C to -20 °C for biological sample analysis.
The concentrations of the compounds in the biological samples obtained from the experiment were determined using an LC-MS/MS analysis method. Pharmacokinetic parameters were calculated using a non-compartmental model in Pharsight Phoenix 7.0.

T1 sequence (P31153 whole entry): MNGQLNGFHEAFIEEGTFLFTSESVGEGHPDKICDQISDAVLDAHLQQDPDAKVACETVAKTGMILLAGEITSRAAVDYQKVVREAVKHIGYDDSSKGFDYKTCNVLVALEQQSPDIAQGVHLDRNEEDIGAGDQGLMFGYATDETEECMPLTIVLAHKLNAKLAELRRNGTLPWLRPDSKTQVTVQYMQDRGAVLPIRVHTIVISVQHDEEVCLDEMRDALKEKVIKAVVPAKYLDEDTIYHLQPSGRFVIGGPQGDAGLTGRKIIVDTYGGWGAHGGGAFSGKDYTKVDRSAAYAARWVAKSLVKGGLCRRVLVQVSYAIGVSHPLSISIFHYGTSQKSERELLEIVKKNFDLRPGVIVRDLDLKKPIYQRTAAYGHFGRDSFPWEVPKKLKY

Regarding `Cc1[nH]c2c(N3CCCCC3)c(-c3ccccc3)nn2c(=O)c1-c1ccc(O)cc1` [AGI-24512, reference compound], it took 0.0268 µM to reach half-maximal inhibition in series [1] (IC50).
Regarding `Cn1cc2cc(-c3nn4ccc(C5CC5)nc4c(-c4ccc(OC(F)F)cc4)c3=O)ccc2n1` [Crystal form L, 2-cyclopropyl-9-[4-(difluoromethoxy)phenyl]-7-(2-methyl-2H-indazol-5-yl)-8H-pyrimido[1,2-b]pyridazin-8-one], the Crystal form change entry in series [2] (0 day), in series [2] (25 °C/60% RH/17 days), in series [2] (40 °C/75% RH/17 days), in series [5] (0 days), in series [5] (1 month) and in series [5] (2 months) was “No” in each case. In addition, the Crystal form change entry in series [5] (3 months) and in series [5] (6 months) was “No” in each case. The Purity in series [2] (0 day) came out at 98.60%; in series [2] (25 °C/60% RH/17 days) it was 99.04%; in series [2] (40 °C/75% RH/17 days), 99.00%. The “change in crystal form or purity” value in series [2] (25 °C/60% RH for 17 days) and in series [2] (40 °C/75% RH for 17 days) was “no change in either crystal form or purity” each time. The “stability in suspension stirring competition” value in series [3] is listed as “stable crystal form”. The “After heating (crystal form)” value in series [4] is on record as “Crystal form A”. The Water content result in series [5] (0 days), in series [5] (1 month) and in series [5] (6 months) was “Undetectable” throughout. The “Related substance Total impurities” value in series [5] (1 month) turned out to be 0.22%; in series [5] (2 months), 0.26%; in series [5] (3 months), 0.26%; in series [5] (6 months), 0.27%.
In series [1], `O=c1c(-c2ccc(OC(F)F)cc2)nn2ccc(C3CC3)nc2c1-c1ccc(OC(F)F)cc1` [Example 1, 2-Cyclopropyl-7,9-bis[4-(difluoromethoxy)phenyl]-8H-pyrimido[1,2-b]pyridazin-8-one] gave an IC50 of 0.00644 µM. In addition, the IC50 in series [6] is 0.26 µM. In series [7], the AUC(0-t) was found to be 45500 ng·h/mL and the Cmax came to 2070 ng/mL.
In turn, `O=c1c(-c2ccc3c(c2)OCO3)nn2ccc(C3CC3)nc2c1-c1ccc2c(c1)OCO2` [Example 2, 7,9-Bis(benzo[d][1,3]dioxol-5-yl)-2-cyclopropyl-8H-pyrimido[1,2-b]pyridazin-8-one] returned an IC50 in series [1] of 0.0114 µM. In series [6], this compound gave an IC50 of 0.119 µM. In series [7], the AUC(0-t) worked out at 8730 ng·h/mL and the Cmax was found to be 1370 ng/mL.
As for `Cn1cc2cc(-c3nn4ccc(C5CC5)nc4c(-c4ccc(OC(F)F)cc4)c3=O)ccc2n1` [Example 3, 2-Cyclopropyl-9-[4-(difluoromethoxy)phenyl]-7-(2-methyl-2H-indazol-5-yl)-8H-pyrimido[1,2-b]pyridazin-8-one], in series [1], the IC50 is 0.0107 µM. The IC50 in series [6] was 0.0143 µM. For the same compound, in series [7], the AUC(0-t) was determined as 78300 ng·h/mL and the Cmax worked out at 4210 ng/mL.
